From ChEMBL document CHEMBL4334467, “Synthesis and SAR Study of Carbamoyl Pyridone Bicycle Derivatives as Potent Inhibitors of Influenza Cap-dependent Endonuclease” (J Med Chem, 2019)
Calls of active or inactive are those of the source. The rule behind the calls is not given here.

How the values were obtained:
Influenza A virus [1] = assay type: functional, organism-based; settings: A/WSN/1933(H1N1), MDCK, 72 h
[2] = target: Polymerase acidic protein (Influenza A virus (A/Puerto Rico/8/1934(H1N1)), UniProt P03433); test: Inhibition of Influenza A virus (A/WSN/1933(H1N1)) CEN using m7G[5']-ppp-[5'] [m2'-O]GAA UAU(-Cy3) GCAUCACUAGUAAGCUUUGCUCUA(-BHQ2)-3' as substrate measured after 60 mins by fluorescence assay
[3] = Protein binding in rat serum assessed as unbound fraction after 24 hrs by LC-MS based equilibrium dialysis analysis; assay type: ADME, cell-free
[4] = Metabolic stability in Crj:CD(SD) rat liver microsomes assessed as compound remaining at 2 uM incubated for 30 mins by LC/MS/MS analysis; assay type: ADME, Microsome; settings: read-out: Stability
[5] = In vivo total clearance in Sprague-Dawley rat at 0.5 mg/kg, iv administered as single dose after 2 to 360 mins by LC/MS/MS analysis; assay type: ADME, organism-based
Influenza B virus [6] = test: Antiviral activity against Influenza B virus (B/Maryland/1/59) infected in BALB/C mouse assessed as increase in mouse survival at 0.08 to 2 mg/kg, iv administered once daily; assay type: functional, organism-based
Influenza A virus [7] = assay type: functional, organism-based; settings: A/Puerto Rico/8/1934(H1N1), MDCK, 72 h
Influenza B virus [8] = test: Antiviral activity against Influenza B virus (B/Maryland/1/59) infected in iv dosed BALB/C mouse administered once daily; assay type: functional
Influenza B virus [9] = test: Antiviral activity against Influenza B virus (B/Hong Kong/05/72) infected in MDCK cells assessed as reduction in virus-induced cytopathic effect incubated for 72 hrs by WST assay; assay type: functional, organism-based; settings: B/Hong Kong/05/1972, MDCK
Influenza B virus [10] = test: Antiviral activity against Influenza B virus (B/Maryland/1/59) infected in MDCK cells assessed as reduction in virus-induced cytopathic effect incubated for 72 hrs by WST assay; assay type: functional, organism-based
Influenza A virus H3N2 [11] = assay type: functional, organism-based; settings: A/Victoria/3/1975(H3N2), MDCK, 72 h
[12] = Cytotoxicity against MDCK cells after 3 days by WST-8 assay; assay type: cell-based, Canis lupus familiaris; settings: dog
Influenza B virus [13] = test: Antiviral activity against Influenza B virus (B/Maryland/1/59) infected in BALB/C mouse assessed as mouse survival at 10 mg/kg, iv administered once daily relative to control; assay type: functional
Influenza A virus H3N2 [14] = assay type: functional, organism-based; settings: A/Hong Kong/8/68, MDCK, 72 h
Influenza A virus [15] = test: microbe, parasite or virus in culture
Description: Antiviral activity against Influenza A virus

[16] = target: Polymerase acidic protein (Influenza A virus (A/Puerto Rico/8/1934(H1N1)), UniProt P03433); test: Inhibition of Influenza A virus CEN
Influenza A virus [17] = assay type: functional, organism-based; settings: MDCK

Molecule `COCCN1C[C@H](Cc2ccccc2)n2cc(C(=O)O)c(=O)c(O)c2C1=O` has an EC50 (Influenza A virus [1]) greater than 50000 nM and an IC50 [2] of 241 nM.

Molecule `CN1C[C@H](C(c2ccccc2)c2ccccc2)n2ccc(=O)c(O)c2C1=O` has an EC50 (Influenza A virus [1]) of 144 nM, a fraction unbound at 24 h [3] of 0.285 and a remaining at 0.5 h, 2 µM [4] of 79.9%. The IC50 [2] was 80.4 nM and the clearance [5] was 31.6 mL/min/kg.

In the case of `CC(C)N1CN(C(c2ccccc2)c2ccccc2)n2ccc(=O)c(O)c2C1=O`, the Activity (Influenza B virus [6]) is reported as “inactive”, the EC50 (Influenza A virus [7]) is reported as 183 nM and the EC50 (Influenza A virus [1]) is reported as 81.6 nM. The Activity (Influenza B virus [8]) was “Dose-dependent effect”, the ED50 (Influenza B virus [8]) was 0.89 mg/kg/day and the fraction unbound at 24 h [3] was 0.0377. It also gave an EC50 (Influenza B virus [9]) of 124 nM, an EC50 (Influenza B virus [10]) of 176 nM and a remaining at 0.5 h, 2 µM [4] of 86%. It also gave an IC50 [2] of 286 nM, an EC50 (Influenza A virus H3N2 [11]) of 829 nM and a CC50 at 72 h [12] greater than 25000 nM. The survival at 10 mg/kg (Influenza B virus [13]) was 100%, the clearance [5] was 10.9 mL/min/kg and the EC50 (Influenza A virus H3N2 [14]) was 302 nM.

Work on `COCCN1C[C@H](CC(C)C)n2cc(C(=O)O)c(=O)c(O)c2C1=O` yielded an IC50 [2] of 9310 nM.

`O=C(O)c1cn(CC2(n3ccc4cccnc43)CCCC2)cc(O)c1=O` gave an EC50 (Influenza A virus [15]) of 201 nM and an IC50 [16] of 5 nM.

With `COCCN1C[C@H](C(c2ccccc2)c2ccccc2)n2ccc(=O)c(O)c2C1=O` the EC50 (Influenza A virus [1]) was 134 nM, the fraction unbound at 24 h [3] was 0.297 and the remaining at 0.5 h, 2 µM [4] was 79.7%. For the same molecule, the IC50 [2] was 115 nM and the clearance [5] was 42.2 mL/min/kg.

In the case of `CNC(=O)c1cn2c(c(O)c1=O)C(=O)N(CCOC)C[C@@H]2C(c1ccccc1)c1ccccc1`, the EC50 (Influenza A virus [1]) is reported as 7110 nM and the IC50 [2] is reported as 1590 nM.

Molecule `CN1CN(C(c2ccccc2)c2ccccc2)n2ccc(=O)c(O)c2C1=O` has an EC50 (Influenza A virus [1]) of 81.6 nM, a fraction unbound at 24 h [3] of 0.07 and a remaining at 0.5 h, 2 µM [4] of 92.1%. The IC50 [2] was 164 nM and the clearance [5] was 18.8 mL/min/kg.

Molecule `COCCN1C[C@H](C(C)C)n2cc(C(=O)O)c(=O)c(O)c2C1=O` has an IC50 [2] of 2990 nM.

For `CC(C)N1C[C@H](C(c2ccccc2)c2ccccc2)n2ccc(=O)c(O)c2C1=O`, the EC50 (Influenza A virus [7]) was 194 nM, the EC50 (Influenza A virus [1]) was 57.5 nM and the fraction unbound at 24 h [3] was 0.182. The EC50 (Influenza B virus [9]) was 100 nM, the EC50 (Influenza B virus [10]) was 177 nM and the remaining at 0.5 h, 2 µM [4] was 78.7%. The IC50 [2] was 239 nM, the EC50 (Influenza A virus H3N2 [11]) was 488 nM and the clearance [5] was 25.3 mL/min/kg. The EC50 (Influenza A virus H3N2 [14]) was 232 nM.

In the case of `COCCN1C[C@H](CCc2ccccc2)n2cc(C(=O)O)c(=O)c(O)c2C1=O`, the IC50 [2] is reported as 1350 nM.

Molecule `COCCN1C[C@H](c2ccccc2)n2cc(C(=O)O)c(=O)c(O)c2C1=O` has an EC50 (Influenza A virus [1]) greater than 50000 nM and an IC50 [2] of 27800 nM.

`COCCN1CN(C(c2ccccc2)c2ccccc2)n2ccc(=O)c(O)c2C1=O` showed an EC50 (Influenza A virus [1]) of 75.2 nM, a fraction unbound at 24 h [3] of 0.129 and a remaining at 0.5 h, 2 µM [4] of 83.4%. The IC50 [2] was 103 nM and the clearance [5] was 47.4 mL/min/kg.

For `COCCN1CCn2cc(C(=O)O)c(=O)c(O)c2C1=O`, the IC50 [2] was 68600 nM.

In the case of `COCCN1CN(Cc2ccc(F)cc2)n2cc(C(=O)O)c(=O)c(O)c2C1=O`, the EC50 (Influenza A virus [1]) is reported as greater than 25000 nM and the IC50 [2] is reported as 419 nM.

Molecule `O=C1N/C(=N\N=C2\C(=O)Nc3ccccc32)S/C1=C1\C(=O)Nc2ccccc21` has an EC50 (Influenza A virus [17]) of 800 nM.

Work on `O=C(O)/C(O)=C/C(=O)C1(Cc2ccc(Cl)cc2)CCN(Cc2ccccc2)CC1` yielded an EC50 (Influenza A virus [1]) of 38300 nM.

Molecule `O=c1oc2ccc(-c3ccc(F)cc3)cc2cc1O` has an IC50 [16] of 500 nM.

In the case of `COCCN1C[C@H](C(c2ccccc2)c2ccccc2)n2cc(C)c(=O)c(O)c2C1=O`, the EC50 (Influenza A virus [1]) is reported as 2470 nM and the IC50 [2] is reported as 281 nM.

Molecule `O=C(NCCc1ccc(O)c(O)c1)c1cc2cc(O)c(O)cc2[nH]1` has an EC50 (Influenza A virus [15]) of 16000 nM and an IC50 [16] of 940 nM.

Molecule `COCCN1CN(C(c2ccccc2)c2ccccc2)n2cc(C(=O)O)c(=O)c(O)c2C1=O` has an EC50 (Influenza A virus [1]) of 1470 nM and an IC50 [2] of 116 nM.

`O=c1[nH]c(-c2ccc(F)cc2)c(-c2ccc(-c3nnn[nH]3)cc2)cc1O` gave an EC50 (Influenza A virus [15]) of 11400 nM.

With `O=C1c2c(O)c(=O)ccn2N(C(c2ccccc2)c2ccccc2)CN1Cc1ccco1` the EC50 (Influenza A virus [1]) was 478 nM, the fraction unbound at 24 h [3] was 0.0217 and the remaining at 0.5 h, 2 µM [4] was 50.6%. The IC50 [2] was 588 nM and the clearance [5] was 42.6 mL/min/kg.

In the case of `CCOC(=O)c1cn2c(c(O)c1=O)C(=O)N(CCOC)C[C@@H]2C(c1ccccc1)c1ccccc1`, the EC50 (Influenza A virus [1]) is reported as 2530 nM and the IC50 [2] is reported as 298 nM.

With `COCCN1C[C@H](C(c2ccccc2)c2ccccc2)n2cc(C(=O)O)c(=O)c(O)c2C1=O` the EC50 (Influenza A virus [1]) was 293 nM and the IC50 [2] was 47.8 nM.

`COCCN1C[C@H](C(c2ccccc2)c2ccccc2)n2cc(N)c(=O)c(O)c2C1=O` showed an EC50 (Influenza A virus [1]) of 3860 nM and an IC50 [2] of 358 nM.

Work on `COCCN1C[C@H](C(c2ccccc2)c2ccccc2)n2cc(Cl)c(=O)c(O)c2C1=O` yielded an EC50 (Influenza A virus [1]) of 541 nM.

Molecule `COCCN1C[C@H](C(c2ccccc2)c2ccccc2)n2cc(OC)c(=O)c(O)c2C1=O` has an EC50 (Influenza A virus [1]) of 1680 nM and an IC50 [2] of 110 nM.

With `COCCN1C[C@@H](Cc2ccccc2)n2cc(C(=O)O)c(=O)c(O)c2C1=O` the EC50 (Influenza A virus [1]) was greater than 50000 nM and the IC50 [2] was 27400 nM.
